From ChEMBL document CHEMBL5316293, “Novel Small-Molecule PD-L1 Inhibitor Induces PD-L1 Internalization and Optimizes the Immune Microenvironment” (J Med Chem, 2023)
The source made the active and inactive calls. The rule behind the calls is not given here.

Assays:
[1] = target: Programmed cell death protein 1/Programmed cell death 1 ligand 1 (Homo sapiens, UniProt Q9NZQ7); assay: Inhibition of europium-labeled PD-1/biotinylated PD-L1 interaction (unknown origin) preincubated for 15 mins with PD-L1 followed by PD-1 addition and measured after 90 mins by TR-FRET assay; assay type: protein-complex assay
Chain of Programmed cell death protein 1/Programmed cell death 1 ligand 1 (Q15116 whole entry): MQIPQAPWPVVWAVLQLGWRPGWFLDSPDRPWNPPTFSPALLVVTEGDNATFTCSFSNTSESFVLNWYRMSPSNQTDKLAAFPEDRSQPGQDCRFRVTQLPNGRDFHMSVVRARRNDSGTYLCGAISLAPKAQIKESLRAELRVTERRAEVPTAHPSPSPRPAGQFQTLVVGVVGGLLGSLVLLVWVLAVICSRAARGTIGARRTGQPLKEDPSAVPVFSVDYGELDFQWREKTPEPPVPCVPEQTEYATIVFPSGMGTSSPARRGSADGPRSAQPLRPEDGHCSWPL
Chain of Programmed cell death protein 1/Programmed cell death 1 ligand 1 (Q9NZQ7 whole entry): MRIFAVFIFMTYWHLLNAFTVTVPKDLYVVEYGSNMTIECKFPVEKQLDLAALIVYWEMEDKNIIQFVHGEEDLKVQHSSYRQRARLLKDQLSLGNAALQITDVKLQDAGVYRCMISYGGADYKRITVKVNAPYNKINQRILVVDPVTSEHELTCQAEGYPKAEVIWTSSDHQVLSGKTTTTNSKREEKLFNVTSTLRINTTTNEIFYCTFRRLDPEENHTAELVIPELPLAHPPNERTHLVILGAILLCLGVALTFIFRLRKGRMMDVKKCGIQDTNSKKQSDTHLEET

[2] = target: Programmed cell death 1 ligand 1 (Homo sapiens, UniProt Q9NZQ7); assay: Binding affinity to human PD-L1 assessed as dissociation constant by MST analysis
Chain of Programmed cell death 1 ligand 1 (Q9NZQ7 whole entry): as above

[3] = Toxicity in ICR mouse assessed as acute side effects at 500 to 5000 mg/kg, po administered via gavage for 2 weeks; assay type: organism-based; conditions: in vivo, 336 h, dose 500-5000 mg/kg
[4] = Toxicity in ICR mouse assessed as body weight loss at 500 to 5000 mg/kg, po administered via gavage for 2 weeks; assay type: organism-based; conditions: in vivo, 336 h, dose 500-5000 mg/kg
[5] = Toxicity in ICR mouse assessed as reduction in liver weight at 500 to 5000 mg/kg, po administered via gavage for 2 weeks; assay type: organism-based; conditions: in vivo, 336 h, dose 500-5000 mg/kg
[6] = Toxicity in ICR mouse assessed as reduction in spleen weight at 500 to 5000 mg/kg, po administered via gavage for 2 weeks; assay type: organism-based; conditions: in vivo, 336 h, dose 500-5000 mg/kg
[7] = Toxicity in ICR mouse assessed as reduction in lungs weight at 500 to 5000 mg/kg, po administered via gavage for 2 weeks; assay type: organism-based; conditions: in vivo, 336 h, dose 500-5000 mg/kg
MC38-hPD-L1 [8] = assay: Antitumor activity against humanized mouse MC38-hPD-L1 cells implanted in hPD-1 knockin C57BL/6 mouse assessed as tumor growth inhibition at 25 mg/kg, ip administered for 12 days starting from day 7 post tumor implantation and measured every 2 days relative to control; assay type: functional; conditions: MC38-hPD-L1, 288 h, time 12 day, read-out: TGI
[9] = Toxicity in hPD-1 knockin C57BL/6 mouse implanted with humanized mouse MC38-hPD-L1 cells assessed as reduction in body weight at 10 to 25 mg/kg, ip administered for 12 days starting from day 7 post tumor implantation and measured every 3 to 4 days; assay type: organism-based; conditions: in vivo, 288 h, dose 10-25 mg/kg, time 12 day
MC38-hPD-L1 [10] = assay: (§1) Antitumor activity against humanized mouse MC38-hPD-L1 cells implanted in hPD-1 knockin C57BL/6 mouse assessed as reduction in tumor cell proliferation by measuring reduction in Ki67 expression at 10 to 25 mg/kg, ip administered for 12 days starting from day 7 post tumor implantation by immunohistochemistry analysis; assay type: functional, organism-based; conditions: dose 10-25 mg/kg, time 12.0 day
[11] = target: T1, Programmed cell death protein 1/Programmed cell death 1 ligand 1 (Homo sapiens) (UniProt Q15116+Q9NZQ7); assay: (§2) Inhibition of PD-1/PD-L1 interaction in human A549 cells harboring low level PD-L1 expression assessed as increase in transcriptional-mediated bioluminescent signal preincubated with compound followed by washout and further cultured with Jurkat cells transfected with NFAT luciferase by bio-glo reagent based assay; assay type: cell-based; conditions: dose 50-200 nM
[12] = Antitumor activity against humanized mouse LLC-hPD-L1 cells implanted in hPD-1 knockin C57BL/6 mouse assessed as tumor growth inhibition at 10 mg/kg, ip administered for 12 days starting from day 7 post tumor implantation and measured every 2 days relative to control; assay type: functional; conditions: LLC-hPD-L1, 288 h, time 12 day, read-out: TGI
LLC-hPD-L1 [13] = assay: Antitumor activity against humanized mouse LLC-hPD-L1 cells implanted in hPD-1 knockin C57BL/6 mouse assessed as increase in tumor cell apoptosis by measuring increase in cleaved caspase-3 level administered intraperitoneally for 12 days starting from day 7 post tumor implantation by immunohistochemistry analysis; assay type: functional, cell-based; conditions: dose 10-25 mg/kg, route ip, time 12.0 day
LLC-hPD-L1 [14] = assay: as §1, with “LLC-hPD-L1” for “MC38-hPD-L1”, “expression” for “expression at 10 to 25 mg/kg, ip”, “administered intraperitoneally” for “administered”; assay type: functional, cell-based; conditions: dose 10-25 mg/kg, route ip, time 12.0 day
MC38-hPD-L1 [15] = assay: Antitumor activity against humanized mouse MC38-hPD-L1 cells implanted in hPD-1 knockin C57BL/6 mouse assessed as increase in M1 macrophages at 10 to 25 mg/kg, ip administered for 12 days starting from day 7 post tumor implantation by flow cytometry analysis; assay type: functional, organism-based; conditions: dose 10-25 mg/kg, time 12.0 day
MC38-hPD-L1 [16] = assay: Antitumor activity against humanized mouse MC38-hPD-L1 cells implanted in hPD-1 knockin C57BL/6 mouse assessed as increase in IFN-gamma level at 10 to 25 mg/kg, ip administered for 12 days starting from day 7 post tumor implantation by flow cytometry analysis; assay type: functional, organism-based; conditions: dose 10-25 mg/kg, time 12.0 day
MC38-hPD-L1 [17] = assay: Antitumor activity against humanized mouse MC38-hPD-L1 cells implanted in hPD-1 knockin C57BL/6 mouse assessed as reduction in M2 macrophages at 10 to 25 mg/kg, ip administered for 12 days starting from day 7 post tumor implantation by flow cytometry analysis; assay type: functional, organism-based; conditions: dose 10-25 mg/kg, time 12.0 day
MC38-hPD-L1 [18] = assay: Antitumor activity against humanized mouse MC38-hPD-L1 cells implanted in hPD-1 knockin C57BL/6 mouse assessed as reduction in MDSC cells at 10 to 25 mg/kg, ip administered for 12 days starting from day 7 post tumor implantation by flow cytometry analysis; assay type: functional, organism-based; conditions: dose 10-25 mg/kg, time 12.0 day
MC38-hPD-L1 [19] = assay: Antitumor activity against humanized mouse MC38-hPD-L1 cells implanted in hPD-1 knockin C57BL/6 mouse assessed as reduction in Treg cells at 10 to 25 mg/kg, ip administered for 12 days starting from day 7 post tumor implantation by flow cytometry analysis; assay type: functional, organism-based; conditions: dose 10-25 mg/kg, time 12.0 day
LLC-hPD-L1 [20] = assay: Antitumor activity against humanized mouse LLC-hPD-L1 cells implanted in hPD-1 knockin C57BL/6 mouse assessed as increase in CD8-positive T cells at 10 to 25 mg/kg, ip administered for 12 days starting from day 7 post tumor implantation by flow cytometry analysis; assay type: functional, organism-based; conditions: dose 10-25 mg/kg, time 12.0 day
LLC-hPD-L1 [21] = assay: Antitumor activity against humanized mouse LLC-hPD-L1 cells implanted in hPD-1 knockin C57BL/6 mouse assessed as increase in CD69-positive CD137-positive T cells at 10 to 25 mg/kg, ip administered for 12 days starting from day 7 post tumor implantation by flow cytometry analysis; assay type: functional, organism-based; conditions: dose 10-25 mg/kg, time 12.0 day
LLC-hPD-L1 [22] = assay: Antitumor activity against humanized mouse LLC-hPD-L1 cells implanted in hPD-1 knockin C57BL/6 mouse assessed as increase in GzmB level at 10 to 25 mg/kg, ip administered for 12 days starting from day 7 post tumor implantation by flow cytometry analysis; assay type: functional, organism-based; conditions: dose 10-25 mg/kg, time 12.0 day
MC38-hPD-L1 [23] = assay: Antitumor activity against humanized mouse MC38-hPD-L1 cells implanted in hPD-1 knockin C57BL/6 mouse assessed as macrophage polarization into M1 phenotype at 25 mg/kg, ip administered for 12 days starting from day 7 post tumor implantation by flow cytometry analysis; assay type: functional, organism-based; conditions: time 12.0 day
[24] = target: T1, Programmed cell death protein 1/Programmed cell death 1 ligand 1 (Homo sapiens); assay: as §2, with “human NCI-H358” for “human A549”, “harboring high” for “harboring low”; assay type: cell-based; conditions: dose 50-200 nM
NCI-H460 = assay: Cytotoxicity against human NCI-H460 cells cocultured with human PBMC cells assessed as increase in clearance of tumor cells at 100 to 200 nM preincubated for 30 mins followed by NCI-H460 cells addition and further coincubated for 24 hrs with human PBMC cells by cell impedence assay; assay type: functional, cell-based; conditions: dose 100-200 nM, time 24.5 hrs
Homo sapiens [25] = organism: Homo sapiens; assay: Internalization of PD-L1 in cytoplasm of human RKO cells assessed as increase in PD-L1 concentration in cytoplasm at 1 micromol/L incubated for 6 hrs by fluorescence microscopy; assay type: functional, cell-based; conditions: dose 1.0 µmol/L
Homo sapiens [26] = organism: Homo sapiens; assay: Internalization of PD-L1 in cytoplasm of human RKO cells assessed as decrease in PD-L1 concentration in cell membrane at 1 micromol/L incubated for 6 hrs by fluorescence microscopy; assay type: functional, cell-based; conditions: dose 1.0 µmol/L
Homo sapiens [27] = organism: Homo sapiens; assay: Internalization of PD-L1 in cytoplasm of human RKO cells transfected with DsRed and human calreticulin assessed as colocalization of PD-L1 with endoplasmic reticulum-resident calreticulin at 1 micromol/L incubated for 12 hrs by fluorescence microscopy; assay type: functional, cell-based; conditions: dose 1.0 µmol/L

With COc1cc2c(cc1CN[C@@H](CO)C(=O)O)C(=O)N(c1cccc(-c3ccccc3)c1C)C2=O the IC50 [1] was 0.0061 µM, the Kd [2] was 0.0714 µM and the Activity [3] was “Non-Toxic”. The Activity [4] was “Non-Toxic”, the Activity [5] was “Non-Toxic” and the Activity [6] was “Non-Toxic”. The Activity [7] was “Non-Toxic”, the inhibition in vivo at 25 mg/kg (MC38-hPD-L1 [8]) was 88.8% and the Activity [9] was “Non-Toxic”. The Activity (MC38-hPD-L1 [10]) was “Active”, the inhibition [11] was “Dose-Dependent Effect” and the inhibition in vivo at 10 mg/kg [12] was 57.2%. The Activity (LLC-hPD-L1 [13]) was “Dose-Dependent Effect”, the Activity (LLC-hPD-L1 [14]) was “Dose-Dependent Effect” and the Activity (MC38-hPD-L1 [15]) was “Active”. The Activity (MC38-hPD-L1 [16]) was “Active”, the Activity (MC38-hPD-L1 [17]) was “Active” and the Activity (MC38-hPD-L1 [18]) was “Active”. The Activity (MC38-hPD-L1 [19]) was “Active”, the Activity (LLC-hPD-L1 [20]) was “Active” and the Activity (LLC-hPD-L1 [21]) was “Active”. The Activity (LLC-hPD-L1 [22]) was “Active”, the Activity (MC38-hPD-L1 [23]) was “Active” and the inhibition [24] was “Dose-Dependent Effect”. For the same compound, the Activity (NCI-H460) was “Active”, the Activity (Homo sapiens [25]) was “Active” and the Activity (Homo sapiens [26]) was “Active”. The Activity (Homo sapiens [27]) was “Active”.
